Patent EP0551662A1, “Benzofuranyl- and thiophenylmethylthio-alcanecarboxylic acid derivatives” (BAYER AG, priority 1992, dated 1993)

Columns and labels:
[1] = system: mitochondrial fraction; experiment: Mitochondrial substrate oxidation assay (oxygen electrode); assay type: biochemical; details: NADPH oxidation by mitochondria, final concentration of 300 µM of the test substance, guinea pig hearts
Protocol: 7. Mitochondrial substrate oxidation assay A mitochondrial fraction was prepared from finely-cut guinea pig hearts. […] The compounds according to the invention were tested to gauge their inhibition of cell respiration by measurement of their effect on the oxidation of these two substances at a concentration of up to 100 µg/ml⁻¹. % inhibition of NADPH oxidation by mitochondria at a final concentration of 300 µM of the test substance Table C

[2] = target: T1, NADPH oxidase (Homo sapiens, UniProt P04839); experiment: NADPH oxidase assay in membrane fractions of PMA-stimulated neutrophils; assay type: biochemical; details: final concentration of 33 µM of the test substance
T1 construct: endogenous in cells; host or cells: neutrophils, PMA-stimulated, sonicated; membrane fraction
T1 sequence (P04839 2-570 limits assumed): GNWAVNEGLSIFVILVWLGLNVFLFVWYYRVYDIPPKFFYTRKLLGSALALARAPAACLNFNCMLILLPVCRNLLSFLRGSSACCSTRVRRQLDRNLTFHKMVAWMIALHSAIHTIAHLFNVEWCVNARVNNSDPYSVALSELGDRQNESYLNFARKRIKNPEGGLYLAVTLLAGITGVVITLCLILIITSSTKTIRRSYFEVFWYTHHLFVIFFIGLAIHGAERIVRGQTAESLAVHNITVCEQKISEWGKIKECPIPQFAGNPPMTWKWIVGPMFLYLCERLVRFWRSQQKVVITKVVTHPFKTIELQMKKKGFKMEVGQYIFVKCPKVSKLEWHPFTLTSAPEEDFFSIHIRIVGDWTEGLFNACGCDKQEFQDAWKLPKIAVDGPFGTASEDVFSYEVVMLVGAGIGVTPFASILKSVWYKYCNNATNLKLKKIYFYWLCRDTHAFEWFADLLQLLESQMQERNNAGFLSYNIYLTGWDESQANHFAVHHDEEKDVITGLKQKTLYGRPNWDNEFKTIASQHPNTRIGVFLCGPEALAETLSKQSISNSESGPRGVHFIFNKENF
T1 sequence (P13498 2-195 partner limits assumed): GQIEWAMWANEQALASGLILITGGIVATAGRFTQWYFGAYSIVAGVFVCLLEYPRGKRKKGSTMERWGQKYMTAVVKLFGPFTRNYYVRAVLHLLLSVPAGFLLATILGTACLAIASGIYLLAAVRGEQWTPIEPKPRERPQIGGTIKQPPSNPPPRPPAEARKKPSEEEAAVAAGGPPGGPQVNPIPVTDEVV
Protocol: 3. Inhibition of myeloperoxidase The compounds according to the invention were tested for their action on human neutrophil myeloperoxidase activity by the established method of Bos, A.J. et al., Infection and Immunity, 1981, 32 (2), 427-431. 4. Xanthine oxidase assay Equal parts of the substrate (7.5 mM hypoxanthine) were incubated at 25°C with the compounds according to the invention or carrier, and 10⁻⁵ M luminol and the enzyme xanthine oxidase were added immediately before starting the luminescence measurement. The formation of superoxide was then measured for 140 sec in the 1251 luminometer. The activity was in each case measured against xanthine oxidase in the presence or absence of the compounds according to the invention by monitoring the growth of the absorption at 292 nm due to the formation of uric acid. 5. Determination of the specificity When neutrophils are activated by PMA or FMLP, they release the lysosomal enzyme beta-glucuronidase. […] Using a concentration of 10⁶ cells ml⁻¹, the compounds according to the invention were tested in parallel using a cell preparation thereof to gauge their capability to inhibit FMLP-induced superoxide production and FMLP-induced beta-glucuronidase release. 6. NADPH oxidase assay Neutrophils were stimulated with PMA and treated with ultrasound, and a membrane fraction was prepared. […]

[3] = system: polymorphonuclear granulocytes; experiment: FMLP-induced chemiluminescence of polymorphonuclear granulocytes (inhibition of FMLP-stimulated production of superoxide radical anions); assay type: cell-based; details: human PMN
Protocol: 1. Preparation of human PMN Blood was taken from healthy subjects by venous puncture and neutrophils were purified by dextran sedimentation and resuspended in the buffered medium. 2. Inhibition of FMLP-stimulated production of superoxide radical anions. Neutrophils (2.5 × 10⁵ ml⁻¹) were mixed with the compounds according to the invention in dimethyl sulphoxide (DMSO), the final concentration of the compounds according to the invention being 10 µM and the DMSO concentration being 1% v/v. After addition of luminol, final concentration about 10⁻⁵M and 33 µg/ml of cytochalasin B, the cells were stimulated with a final concentration of about 5 × 10⁻⁸ M FMLP. Measurement of the chemiluminescence peaks was carried out using an LKB 1251 luminometer. The inhibition of the superoxide and the reduction of cytochrome C by FMLP-stimulated cells was likewise measured. Neutrophils (2.6 × 10⁵ ml⁻¹) were mixed with the compounds according to the invention as in the chemiluminescence experiment. Cytochrome C with a concentration of […] is also present. The superoxide-dependent cytochrome C reduction was measured using a Molecular Devices Thermomax plate reader. The inhibition of superoxide production was calculated as follows: [formula] […]

In the case of `COc1ccc(C(=O)c2oc3ccccc3c2CSCCC(=O)O)cc1C(=O)NS(=O)(=O)c1ccccc1C` [Example 17, 2-[4-Methoxy-3-(2-tolylsulphonamide-carbonyl)-benzoyl]-3-[(2-carboxyethyl)thiomethyl]benzo[b]furan], the “% inhibition (mitochondrial respiration)” value [1] is reported as 24 ± 2%, the inhibition at 33 µM [2] is reported as 21 ± 7% and the inhibition at 10 µM ([3]; 10 µM of the test substance) is reported as 96 ± 2%. The IC50 ([3]; read-out: IC₅₀) was 700 nM.

With `COc1ccc(C(=O)c2oc3ccccc3c2CSCCC(=O)O)cc1C(=O)O` [Example 31] the “% inhibition (mitochondrial respiration)” value [1] was 0 ± 7% and the inhibition at 33 µM [2] was 20%.
